This is an account of results in patent US8822448B2, “Pyrazoloquinoline compound” (Astellas Pharma Inc., priority 2010, dated 2014).

Structures can show the parent of a compound that is named as a salt.

Sequence of PDE9 (O76083 whole entry): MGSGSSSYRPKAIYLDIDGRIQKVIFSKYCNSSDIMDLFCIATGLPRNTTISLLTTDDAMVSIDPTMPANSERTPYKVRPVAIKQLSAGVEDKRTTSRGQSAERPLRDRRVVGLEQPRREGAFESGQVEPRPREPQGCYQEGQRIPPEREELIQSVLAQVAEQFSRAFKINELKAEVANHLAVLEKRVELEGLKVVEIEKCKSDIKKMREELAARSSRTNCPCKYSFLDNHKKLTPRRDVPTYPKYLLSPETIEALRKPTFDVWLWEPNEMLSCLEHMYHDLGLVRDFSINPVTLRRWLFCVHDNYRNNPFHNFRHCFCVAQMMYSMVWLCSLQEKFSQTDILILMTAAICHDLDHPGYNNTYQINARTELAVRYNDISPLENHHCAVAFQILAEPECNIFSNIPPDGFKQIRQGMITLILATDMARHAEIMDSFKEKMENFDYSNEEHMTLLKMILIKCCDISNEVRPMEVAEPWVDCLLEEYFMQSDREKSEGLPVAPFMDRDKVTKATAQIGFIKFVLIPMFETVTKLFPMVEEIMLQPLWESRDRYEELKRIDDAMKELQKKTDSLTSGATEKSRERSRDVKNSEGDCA

The experiment has as its target PDE9 (Homo sapiens (Human), UniProt O76083). In words: PDE9-inhibiting activity (SPA enzyme assay). Format: biochemical. The following applies: IC50 values; cGMP 1 μM substrate, 30° C.; read-out: PDE9 inhibition. The method, then:
The PDE9-inhibiting activity was measured by the following method. That is, to a buffer solution containing tris(hydroxymethyl)aminomethane-hydrochloric acid (40 mM, pH 8.0), magnesium chloride (5 mM), and 2-mercaptoethanol (4 mM) were added cGMP (1 μM) and ^3H-cGMP (0.33 μCi/ml) to give a substrate buffer solution. A test substance solution and an enzyme solution which had been adjusted to an optimal concentration were added thereto to perform a reaction at 30° C. The enzyme reaction was stopped by the addition of Scintillation Proximity Assay (SPA) Beads (Perkin Elmer, USA) containing 5 mM 3-isobutyl-1-methylxanthine (IBMX). For the enzyme activity, the amount of 5′-GMP, which is a reaction degradation product bound to SPA beads, was measured with a TopCount microplate reader (Hewlett Packard, USA). The inhibitory rate was calculated by taking the radioactivity of the control containing no test substance as (A), taking the radioactivity of the blank containing no enzyme as (B), and taking the radioactivity of the test substance as (C), and using the following equation.
Take `COCCCCN1CCN(C(=O)c2cc3c(cc2OC)[nH]c(=O)c2cnn(C4CCCC4)c23)CC1` [Example 123]: the IC50 was 18 nM.

For `CCc1cc2[nH]c(=O)c3cnn(C4CCC4)c3c2cc1C(=O)N1CCN(CCC(F)(F)F)CC1` [Example 162], the IC50 was determined as 7 nM.

In the case of `COCCCN1CCN(C(=O)c2cc3c(cc2C)[nH]c(=O)c2cnn(C4CCC(F)(F)CC4)c23)C[C@@H]1C` [Example 624], the IC50 was determined as 10 nM. For the molecule `Cc1cc2[nH]c(=O)c3cnn(C4CCOCC4)c3c2cc1C(=O)N1CCN(CCCC(F)(F)F)CC1` [Example 139], the IC50 was found to be 3 nM. With `COCCCCN1CCN(C(=O)c2cc3c(cc2C)[nH]c(=O)c2cnn(C4CCC(F)(F)CC4)c23)C[C@@H]1C` [Example 193], the IC50 came out at 5.7 nM. For the molecule `Cc1cc2[nH]c(=O)c3cnn([C@H]4CCOC4)c3c2cc1C(=O)N1CCN(CCC(F)(F)F)CC1` [Example 185], the IC50 amounted to 19 nM. Regarding `Cc1cc2[nH]c(=O)c3cnn([C@H]4CCOC4)c3c2cc1C(=O)N1CCN(CCCOC(F)(F)F)CC1` [Example 219], the IC50 stood at 15 nM. In the case of `COCCCCN1CCN(C(=O)c2cc3c(cc2C)[nH]c(=O)c2cnn(C4CCCC4)c23)C[C@@H]1C` [Example 186], the IC50 amounted to 3.8 nM. With `COCCCCN1C[C@H](C)N(C(=O)c2cc3c(cc2C)[nH]c(=O)c2cnn(C4CCOCC4)c23)C[C@H]1C` [Example 183], the IC50 came out at 3.5 nM. As for `Cc1cc2[nH]c(=O)c3cnn(C4CCOCC4)c3c2cc1C(=O)N1CCC(O)(C(F)(F)F)CC1` [Example 221], the IC50 was 24 nM. To `COCCCN1CCN(C(=O)c2cc3c(cc2C)[nH]c(=O)c2cnn(CC4CC4)c23)C[C@@H]1C` [Example 640] belongs 3.3 nM; to `Cc1ccc(OC2CCN(C(=O)c3cc4c(cc3C)[nH]c(=O)c3cnn(C5CCN(C)CC5)c34)CC2)nc1` [Example 213], 11 nM. Turning to `COCCC1CCN(C(=O)c2cc3c(cc2C)[nH]c(=O)c2cnn([C@H]4CCOC4)c23)CC1` [Example 668], the IC50 turned out to be 9.8 nM. With `Cc1cc2[nH]c(=O)c3cnn(C4CCOCC4)c3c2cc1C(=O)N1CCC2(CCCO2)CC1` [Example 87], the IC50 is 12 nM. Consider `CCOCC1CCN(C(=O)c2cc3c(cc2C(F)(F)F)[nH]c(=O)c2cnn(C4CCOCC4)c23)CC1` [Example 152], for which the IC50 stood at 53 nM. The same measure for `COCCCN1CCN(C(=O)c2cc3c(cc2C)[nH]c(=O)c2cnn(C4CCCC4)c23)C[C@@H]1C` [Example 655]: 4.7 nM; for `Cc1cc2[nH]c(=O)c3cnn(C4CCOCC4)c3c2cc1C(=O)N1CCC(OC2CCC2)CC1` [Example 169]: 2.5 nM. Regarding `Cc1cc2[nH]c(=O)c3cnn([C@H]4CCOC4)c3c2cc1C(=O)N1CCC(OC[C@H](C)F)CC1` [Example 178], the IC50 was determined as 4.4 nM.

`COCCCCN1C[C@H](C)N(C(=O)c2cc3c(cc2C)[nH]c(=O)c2cnn(CC4CC4)c23)C[C@H]1C` [Example 187]: the IC50 amounted to 8.4 nM. Take `COc1cc2[nH]c(=O)c3cnn(C4CCCC4)c3c2cc1C(=O)NCC(C)(C)N1CCOCC1` [Example 119]: the IC50 was 8.9 nM. Take `CCN1CCN(C(=O)c2cc3c(cc2C)[nH]c(=O)c2cnn(C4CCN(C)CC4)c23)C[C@@H]1c1ccccc1` [Example 214]: the IC50 amounted to 16 nM. As for `Cc1cc2[nH]c(=O)c3cnn([C@H]4CCOC4)c3c2cc1C(=O)N1CCC(OCC(F)(F)F)CC1` [Example 203], the IC50 was 2.8 nM.

With `COCCCN1CCN(C(=O)c2cc3c(cc2C)[nH]c(=O)c2cnn(CC4CCC4)c23)C[C@@H]1C` [Example 648], the IC50 stood at 2 nM. For the molecule `Cc1cc2[nH]c(=O)c3cnn(C4CCOCC4)c3c2cc1C(=O)N1CCC2(CC1)COc1ccccc12` [Example 283], the IC50 worked out at 5.9 nM.

For the molecule `Cc1cc2[nH]c(=O)c3cnn(C4CCOCC4)c3c2cc1C(=O)N1CC(N(C)CCC(F)(F)F)C1` [Example 150], the IC50 came out at 8 nM.

`CCOCCCN1CCN(C(=O)c2cc3c(cc2C)[nH]c(=O)c2cnn(C4CCC4)c23)CC1` [Example 70]: the IC50 came to 17 nM. As to `Cc1cc2[nH]c(=O)c3cnn(C4CCOCC4)c3c2cc1C(=O)N1CCN(CCC(F)(F)F)[C@@H](C)C1` [Example 207], the IC50 was 1.7 nM. Take `Cc1cc2[nH]c(=O)c3cnn(C4CCOCC4)c3c2cc1C(=O)N1CCN(CCCOC(F)(F)F)CC1` [Example 173]: the IC50 was 6.3 nM. Turning to `CCOCC1CCN(C(=O)c2cc3c(cc2C)[nH]c(=O)c2cnn(C4CCOCC4)c23)C1` (centres unmarked) [Example 92], the IC50 was determined as 6.1 nM. Regarding `COCCCCN1C[C@@H]2C[C@H]1CN2C(=O)c1cc2c(cc1C)[nH]c(=O)c1cnn(C3CCOCC3)c12` [Example 145], the IC50 turned out to be 8.3 nM. The same measure for `CCOCCCCN1CCN(C(=O)c2cc3c(cc2C)[nH]c(=O)c2cnn(C4CCOCC4)c23)CC1` [Example 107]: 15 nM; for `Cc1cc2[nH]c(=O)c3cnn(C4CCOCC4)c3c2cc1C(=O)N1CC2CN(Cc3ccccc3)CC2C1` (centres unmarked) [Example 74]: 12 nM; for `Cc1cc2[nH]c(=O)c3cnn(C4CCOCC4)c3c2cc1C(=O)N1CCN(Cc2cccnc2)CC1` [Example 2, 7-methyl-8-{[4-(pyridin-3-ylmethyl)piperazin-1-yl]carbonyl}-1-(tetrahydro-2H-pyran-4-yl)-1,5-dihydro-4H-pyrazolo[4,3-c]quinolin-4-one dihydrochloride]: 12 nM.

Regarding `Cc1cc2[nH]c(=O)c3cnn(CC4CCC4)c3c2cc1C(=O)N1C[C@@H](C)N(CCC(F)(F)F)C[C@@H]1C` [Example 190], the IC50 came out at 7.5 nM. On to `Cc1cc2[nH]c(=O)c3cnn(CC4CC4)c3c2cc1C(=O)N1CCN(CCC(F)(F)F)[C@@H](C)C1` [Example 210], for which the IC50 was 1.3 nM. In the case of `Cc1cc2[nH]c(=O)c3cnn([C@H]4CCN(C)C4)c3c2cc1C(=O)N1CCN(c2ccc(F)c(C)n2)[C@@H](C)C1` [Example 181], the IC50 was 4.4 nM.

`CCOCC1CCN(C(=O)c2cc3c(cc2C)[nH]c(=O)c2cnn([C@H]4CCOC4)c23)CC1` [Example 148]: the IC50 was found to be 5.1 nM. The same measure for `Cc1cc2[nH]c(=O)c3cnn(CC4CCC4)c3c2cc1C(=O)N1CCN(CCC(F)(F)F)[C@@H](C)C1` [Example 211]: 1.2 nM. Take `Cc1cc2[nH]c(=O)c3cnn(C4CCOCC4)c3c2cc1C(=O)N1CCC(OCC(F)F)CC1` [Example 94]: the IC50 worked out at 1.7 nM. The same measure for `COCCCCN(C)[C@H]1CCN(C(=O)c2cc3c(cc2C)[nH]c(=O)c2cnn(C4CCOCC4)c23)C1` [Example 127]: 5 nM. The same measure for `Cc1cc2[nH]c(=O)c3cnn(C4CCC(F)(F)CC4)c3c2cc1C(=O)N1CCN(CCC(F)(F)F)[C@@H](C)C1` [Example 208]: 1.7 nM; for `Cc1cc2[nH]c(=O)c3cnn(C4CCOCC4)c3c2cc1C(=O)N1C[C@@H](C)N(CCC(F)(F)F)C[C@@H]1C` [Example 184]: 4.7 nM; for `COCCCCN1CCN(C(=O)c2cc3c(cc2C)[nH]c(=O)c2cnn(C4CCC4)c23)C[C@@H]1C` [Example 146]: 5.2 nM. On to `COCCCCN1CCN(C(=O)c2cc3c(cc2C)[nH]c(=O)c2cnn(CC4CC(F)(F)C4)c23)C[C@@H]1C` [Example 204], for which the IC50 was determined as 6.2 nM. With `Cc1cc2[nH]c(=O)c3cnn([C@H]4CCOC4)c3c2cc1C(=O)N1CCC(OC[C@@H](C)F)CC1` [Example 220], the IC50 was determined as 16 nM. Regarding `COCCCCN1C[C@H](C)N(C(=O)c2cc3c(cc2C)[nH]c(=O)c2cnn(CC4CCC4)c23)C[C@H]1C` [Example 189], the IC50 stood at 6.9 nM.

`Cc1cc2[nH]c(=O)c3cnn(C4CCC4)c3c2cc1C(=O)N1CCN(CCC(F)(F)F)CC1` [Example 161]: the IC50 came to 31 nM. With `Cc1cc2[nH]c(=O)c3cnn(C4CCOCC4)c3c2cc1C(=O)N1CCN(CC(F)(F)F)CC1` [Example 427], the IC50 was found to be 20 nM.

With `Cc1cc2[nH]c(=O)c3cnn([C@H]4CCOC4)c3c2cc1C(=O)N1CCC(OCC(C)(F)F)CC1` [Example 191], the IC50 amounted to 9.5 nM. With `CCOCCC1CCN(C(=O)c2cc3c(cc2C)[nH]c(=O)c2cnn([C@H]4CCOC4)c23)CC1` [Example 201], the IC50 was found to be 6.6 nM.

On to `Cc1cc2[nH]c(=O)c3cnn(CC4CC4)c3c2cc1C(=O)N1C[C@@H](C)N(CCC(F)(F)F)C[C@@H]1C` [Example 188], for which the IC50 was 14 nM. The same measure for `Cc1cc2[nH]c(=O)c3cnn([C@H]4CCOC4)c3c2cc1C(=O)N1CCC(OC2CCC2)CC1` [Example 202]: 3.7 nM; for `CCOCCC1CCN(C(=O)c2cc3c(cc2C)[nH]c(=O)c2cnn(C4CCOCC4)c23)CC1` [Example 168]: 4.3 nM. Consider `Cc1cc2[nH]c(=O)c3cnn(C4CCOCC4)c3c2cc1C(=O)N1CCC(C(F)(F)F)CC1` [Example 192], for which the IC50 amounted to 11 nM. Regarding `COCCCCN1CCN(C(=O)c2cc3c(cc2C)[nH]c(=O)c2cnn(CC4CC4)c23)C[C@@H]1C` [Example 195], the IC50 is 4.4 nM. For `COCC(F)(F)CN1CCN(C(=O)c2cc3c(cc2C)[nH]c(=O)c2cnn([C@H]4CCOC4)c23)CC1` [Example 166], the IC50 was found to be 10 nM. Turning to `Cc1cc2[nH]c(=O)c3cnn(C4CCCC4)c3c2cc1C(=O)N1CCN(CCC(F)(F)F)[C@@H](C)C1` [Example 212], the IC50 worked out at 2.4 nM. On to `Cc1cc2[nH]c(=O)c3cnn([C@H]4CCN(C)C4)c3c2cc1C(=O)N1CCN(c2ccc(F)c(C)n2)[C@H](C)C1` [Example 182], for which the IC50 is 5.5 nM. The same measure for `COCCCCN1CCN(C(=O)c2cc3c(cc2C)[nH]c(=O)c2cnn(CC4CCOCC4)c23)CC1` [Example 154]: 32 nM.
